Laboratory results published in patent US3962230A, “P-hydroxymethylphenylacetamidocephalosporins” (SmithKline & French Laboratories, Inc., priority 1975, dated 1976).
Values joined by “and” are separate entries in the source; they are usually repeats but may differ in a detail not shown here. Equal values may be shown once. Read-outs that look alike come from different tables or passages of the source.

What was measured:
[1] = system: S. aureus; test: MIC vs S. aureus; format: cell-based; conditions: Staphylococcus aureus
[2] = system: Strep. faecalis; test: MIC vs Strep. faecalis; format: cell-based; conditions: Enterococcus faecalis
[3] = system: E. coli; test: MIC vs E. coli; format: cell-based
[4] = system: Klebs. pneumo.; test: MIC vs Klebs. pneumo.; format: cell-based
[5] = system: Pseudomonas sp.; test: MIC vs Pseudomonas sp.; format: cell-based
[6] = system: Salmonella; test: MIC vs Salmonella; format: cell-based
[7] = system: Serratia marc.; test: MIC vs Serratia marc.; format: cell-based
[8] = system: Staph. Villaluz; test: MIC vs Staph. Villaluz; format: cell-based
[9] = system: E. coli; test: ED50 vs E. coli; format: in vivo; conditions: Escherichia coli
[10] = system: Klebs. pneumo.; test: ED50 vs Klebs. pneumo.; format: in vivo
[11] = system: Shigella; test: MIC vs Shigella; format: cell-based
[12] = system: Entero. aerog.; test: MIC vs Entero. aerog.; format: cell-based
[13] = Escherichia coli, second column, read-out: MIC

Compound: CC(=O)OCC1=C(C(=O)O)N2C(=O)[C@@H](NC(=O)C(N)c3ccc(CO)cc3)[C@H]2SC1 (mixture of isomers) [Compound 37316, 7β-(DL-α-amino-p-hydroxymethylphenylacetamido)cephalosporanic acid]
- MIC ([1]; first column): 12.5 µg/mL
- MIC ([1]; second column): 6.3 µg/mL
- MIC [2]: 200 µg/mL
- MIC [3]: 50 µg/mL
- MIC [3, 13]: 25 µg/mL
- MIC ([4]; second column): 25 µg/mL
- MIC [5]: > 200 µg/mL
- MIC [6]: 12.5 µg/mL and 25 μg/me
- MIC [7]: > 200 µg/mL
- MIC [8]: 100 µg/mL
- ED50 ([9]; po): > 50 mg/kg
- ED50 ([9]; sc): 8.7 mg/kg
- ED50 ([10]; po): > 50 mg/kg
- ED50 ([10]; sc): 20 mg/kg

Compound: CC1=C(C(=O)O)N2C(=O)[C@@H](NC(=O)C(N)c3ccc(CO)cc3)[C@H]2SC1 (mixture of isomers) [Compound 47216, 7β-(DL-α-Amino-p-hydroxymethylphenylacetamido)desacetoxycephalosporanic acid]
- MIC ([1]; first column): 6.3 µg/mL
- MIC ([1]; second column): 25 µg/mL
- MIC ([3]; Escherichia coli, first column, read-out: MIC): 25 µg/mL
- MIC [3, 13]: 50 µg/mL
- MIC ([4]; first column): 25 µg/mL
- MIC ([4]; second column): 25 µg/mL
- MIC [5]: > 200 µg/mL
- MIC [6]: 25 µg/mL
- MIC [11]: 25 µg/mL
- MIC [12]: 50 µg/mL
- MIC [7]: > 200 µg/mL
- MIC [8]: 200 µg/mL
- ED50 ([9]; po): 29 mg/kg
- ED50 ([9]; sc): 33 mg/kg
- ED50 ([10]; po): 50 mg/kg
- ED50 ([10]; sc): > 50 mg/kg
